Where only a bound is given, the exact number is not on record here.

The values that follow come from US10647680B2, “Urea compound, preparation method therefor and medical use thereof” (Ancureall Pharmaceutical (Shanghai) Co., Ltd., priority 2016, dated 2020).

The test system of one experiment is HL-60 (FLT3 wild type). Nature of the experiment: In vitro growth inhibition (GI50), HL-60. The format is cell-based. The following applies: Homo sapiens, Cell lines of leukemia, read-out: GI 50 HL60 FLT3 (WT). The procedure, abridged:
(§1)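 Cells in RPMI1640 with 10% FBS, seeded at 5–10×10^4 cells/mL, exposed next day to compound at 5,000 nM down to 0.01 nM (2- or 10-fold dilutions, ≤1% solvent) for 3–5 days at 37 °C. CCK8 absorbance at 450 nm, growth rate relative to pre-treatment and solvent controls, GI50 from concentration–growth curve.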

Experiment [1] relates to K562 (FLT3 negative expression, positive expression of BCR-ABL fusion protein). As to the kind of experiment: In vitro growth inhibition (GI50), K562. The following applies: Homo sapiens, Cell lines of leukemia, read-out: GI 50 K562 BCR-ABL. The format is cell-based.
Experiment [2] has as its system OCI-AML3 (NPMc+ mutant type). As to the kind of experiment: In vitro growth inhibition (GI50), OCI-AML3. The format is cell-based. The following applies: Homo sapiens, OCI-AML-3; Cell lines of leukemia; read-out: GI 50 OCI- AML3 NPMc+.
Experiment [3] concerns RAMOS (positive expression of Brutons tyrosine protein kinase). Nature of the experiment: In vitro growth inhibition (GI50), RAMOS. To be noted: Homo sapiens, Cell lines of leukemia, read-out: GI 50 Ramos BTK. The format is cell-based.
Experiment [4] relates to MV4-11 (FLT3 ITD+/+ mutant type). Nature of the experiment: In vitro growth inhibition (GI50), MV4-11. The format is cell-based, human. The following applies: Homo sapiens, MV4-11; Cell lines of leukemia; read-out: GI 50 MV4-11 FLT3 (ITD +/+).
Experiment [5] deals with KG-1 (expressing FGFR1OP2-FGFR1 fusion protein). Nature of the experiment: In vitro growth inhibition (GI50), KG-1. To be noted: Homo sapiens; Cell lines of leukemia; read-out: GI 50 KG-1 FGFR1OP 2-FGFR1. The format is cell-based.
The next experiment deals with U937 (FLT3 wild-type). Nature of the experiment: In vitro growth inhibition (GI50), U937. The format is cell-based. To be noted: Homo sapiens, U-937; Cell lines of leukemia; read-out: GI 50 U937 FLT 3(WT).
Experiment [6] concerns Kasumi-1 (c-Kit N822K mutant type). As to the kind of experiment: In vitro growth inhibition (GI50), Kasumi-1. The format is cell-based. To be noted: Homo sapiens, Cell lines of leukemia, read-out: GI 50 Kasumi-1 Kit (N822K). The method, boiled down: as §1
The test system of a further experiment is RS4; 11 (FLT3 wild type). As to the kind of experiment: In vitro growth inhibition (GI50), RS4; 11. The format is cell-based, human. The following applies: Homo sapiens, RS4-11; Cell lines of leukemia; read-out: GI 50 RS4: 11 FLT3 (WT).
In experiment [7] the test system is MOLM-13 (FLT3 ITD+/− mutant type). Nature of the experiment: In vitro growth inhibition (GI50), MOLM-13. The format is cell-based, human. The following applies: Homo sapiens, MOLM-13; Cell lines of leukemia; read-out: GI 50 MOLM-13 FLT3 (ITD+/−).

Take `CC(C)(C)c1cc(NC(=O)Nc2ccc(-n3cnc4ncccc43)cc2)no1` [Compound 56, 1-(5-tert-butyl-isoxazol-3-yl)-3-(4-imidazo[4,5-b]pyridin-1-yl-phenyl)-urea]: the GI50 in the experiment with HL-60 (FLT3 wild type) was greater than 1 µM; in experiment [1] it was greater than 1 µM; in experiment [2], greater than 1 µM; in [3], greater than 1 µM; in experiment [4], 0.01 to 0.1 µM; in experiment [5], 0.1 to 1 µM. For the same compound, the GI50 with U937 (FLT3 wild-type) was greater than 1 µM; in [6] it was greater than 1 µM; in the experiment with RS4; 11 (FLT3 wild type), greater than 1 µM; in experiment [7] it was 0.01 to 0.1 µM.

Consider `COc1ncnc2ncn(-c3ccc(NC(=O)Nc4cc(C(C)(C)C)on4)cc3)c12` [Compound 57, 1-(5-tert-butyl-isoxazol-3-yl)-3-[4-(6-methoxyl-purin-7-yl)-phenyl]-urea], for which the GI50 with HL-60 (FLT3 wild type) was greater than 1 µM; in [1], greater than 1 µM; in experiment [2], greater than 1 µM; in experiment [3], greater than 1 µM; in [4] it was 0.01 to 0.1 µM; in experiment [5], greater than 1 µM. In addition, the GI50 in the experiment with U937 (FLT3 wild-type) is greater than 1 µM; in experiment [6] it was greater than 1 µM; in the experiment with RS4; 11 (FLT3 wild type), greater than 1 µM; in experiment [7], 0.01 to 0.1 µM.

Turning to `COc1ncnc2c1ncn2-c1ccc(NC(=O)Nc2cc(C(C)(C)C)on2)cc1` [Compound 58, 1-(5-tert-butyl-isoxazol-3-yl)-3-[4-(6-methoxylpurin-9-yl)-phenyl]-urea], the GI50 with HL-60 (FLT3 wild type) is greater than 1 µM; in experiment [1], greater than 1 µM; in experiment [2], greater than 1 µM; in experiment [3] it was greater than 1 µM; in [4], 0.01 to 0.1 µM; in experiment [5], greater than 1 µM. Further, the GI50 in the experiment on U937 (FLT3 wild-type) is greater than 1 µM; in [6] it was greater than 1 µM; in the experiment on RS4; 11 (FLT3 wild type), greater than 1 µM; in experiment [7], 0.01 to 0.1 µM.

On to `CN(C)c1ncnc2ncn(-c3ccc(NC(=O)Nc4cc(C(C)(C)C)on4)cc3)c12` [Compound 59, 1-(5-tert-butyl-isoxazol-3-yl)-3-[4-(6-dimethylamino-purin-7-yl)-phenyl]-urea], for which the GI50 in the experiment on HL-60 (FLT3 wild type) was greater than 1 µM; in experiment [1] it was 0.1 to 1 µM; in experiment [2], greater than 1 µM; in [3], greater than 1 µM; in experiment [4], 0.001 to 0.01 µM; in experiment [5] it was 0.1 to 1 µM. Also, the GI50 with U937 (FLT3 wild-type) was greater than 1 µM; in experiment [6] it was greater than 1 µM; with RS4; 11 (FLT3 wild type), 0.1 to 1 µM; in experiment [7], 0.001 to 0.01 µM.

For `O=C(Nc1ccc(-n2cnc3ccccc32)cc1)Nc1nccs1` [Compound 60, 1-(4-benzimidazol-1-yl-phenyl)-3-thiazol-2-yl-urea], the GI50 in the experiment with HL-60 (FLT3 wild type) was greater than 1 µM; in experiment [1], greater than 1 µM; in experiment [2], greater than 1 µM; in [3], greater than 1 µM; in [4] it was greater than 1 µM; in experiment [5], 0.1 to 1 µM. In addition, the GI50 (in the experiment on U937 (FLT3 wild-type); in [6]; with RS4; 11 (FLT3 wild type); in experiment [7]) was greater than 1 µM in each case.

As to `Cc1csc(NC(=O)Nc2ccc(-n3cnc4ccccc43)cc2)n1` [Compound 61, 1-(4-benzimidazol-1-yl-phenyl)-3-(4-methyl-thiazol-2-yl)-urea], the GI50 (with HL-60 (FLT3 wild type); in [1]; in experiment [2]; in experiment [3]; in [4]; in experiment [5]) was greater than 1 µM each time. The GI50 (with U937 (FLT3 wild-type); in experiment [6]; with RS4; 11 (FLT3 wild type); in [7]) was greater than 1 µM in each case.

For the compound `O=C(Nc1ccc(-n2cnc3ccccc32)cc1)Nc1nncs1` [Compound 62, 1-(4-benzimidazol-1-yl-phenyl)-3-[1,3,4]thiadiazol-2-yl-urea], the GI50 (with HL-60 (FLT3 wild type); in [1]; in [2]; in experiment [3]; in [4]; in experiment [5]) was greater than 1 µM each time. Moreover, the GI50 (in the experiment on U937 (FLT3 wild-type); in [6]; in the experiment on RS4; 11 (FLT3 wild type); in [7]) was greater than 1 µM throughout.

Turning to `CC(C)(C)c1nnc(NC(=O)Nc2ccc(-n3cnc4ccccc43)cc2)s1` [Compound 63, 1-(4-benzimidazol-1-yl-phenyl)-3-(5-tert-butyl-[1,3,4]thiadiazole-2-yl)-urea], the GI50 with HL-60 (FLT3 wild type) is greater than 1 µM; in experiment [1], greater than 1 µM; in [2], greater than 1 µM; in experiment [3], greater than 1 µM; in experiment [4], 0.001 to 0.01 µM; in [5] it was greater than 1 µM. In addition, the GI50 is greater than 1 µM in the experiment with U937 (FLT3 wild-type), greater than 1 µM in experiment [6], greater than 1 µM in the experiment with RS4; 11 (FLT3 wild type) and 0.001 to 0.01 µM in [7].

Take `Cc1cc(NC(=O)Nc2ccc(-n3cnc4ccccc43)cc2)n[nH]1` [Compound 64, 1-(4-benzimidazol-1-yl-phenyl)-3-(5-methyl-1H-pyrazol-3-yl)-urea]: the GI50 in the experiment on HL-60 (FLT3 wild type) was greater than 1 µM; in experiment [1] it was greater than 1 µM; in [2], greater than 1 µM; in experiment [3] it was greater than 1 µM; in [4], 0.1 to 1 µM; in experiment [5], 0.1 to 1 µM. Further, the GI50 with U937 (FLT3 wild-type) was greater than 1 µM; in [6], greater than 1 µM; in the experiment on RS4; 11 (FLT3 wild type), greater than 1 µM; in experiment [7], 0.1 to 1 µM.

`O=C(Nc1ccc(-n2cnc3ccccc32)cc1)Nc1cc(-c2ccccc2)[nH]n1` [Compound 65, 1-(4-benzimidazol-1-yl-phenyl)-3-(5-phenyl-1H-pyrazol-3-yl)-urea]: the GI50 in the experiment on HL-60 (FLT3 wild type) is greater than 1 µM; in experiment [1], greater than 1 µM; in [2], greater than 1 µM; in experiment [3], greater than 1 µM; in experiment [4], 0.1 to 1 µM; in [5], greater than 1 µM. The GI50 with U937 (FLT3 wild-type) is greater than 1 µM; in [6], greater than 1 µM; in the experiment with RS4; 11 (FLT3 wild type) it was greater than 1 µM; in experiment [7], 0.1 to 1 µM.

`O=C(Nc1ccc(-n2cnc3ccccc32)cc1)Nc1cc(C2CC2)n[nH]1` [Compound 66, 1-(4-benzimidazol-1-yl-phenyl)-3-(5-cyclopropyl-2H-pyrazol-3-yl)-urea]: the GI50 in the experiment on HL-60 (FLT3 wild type) is greater than 1 µM; in experiment [1], greater than 1 µM; in [2] it was greater than 1 µM; in [3], greater than 1 µM; in [4], 0.01 to 0.1 µM; in experiment [5], greater than 1 µM. In addition, the GI50 was greater than 1 µM with U937 (FLT3 wild-type), greater than 1 µM in [6], greater than 1 µM with RS4; 11 (FLT3 wild type) and 0.01 to 0.1 µM in experiment [7].

For `O=C(Nc1ccc(-n2cnc3ccccc32)cc1)Nc1cc(C(F)(F)F)n[nH]1` [Compound 67, 1-(4-benzimidazol-1-yl-phenyl)-3-(5-trifluoromethyl-2H-pyrazole-3-yl)-urea], the GI50 is 0.1 to 1 µM in the experiment on HL-60 (FLT3 wild type); 0.1 to 1 µM in experiment [1]; greater than 1 µM in [2]; 0.1 to 1 µM in [3]; 0.0001 to 0.001 µM in experiment [4]; 0.1 to 1 µM in [5]. Also, the GI50 lay within 0.1 to 1 µM with U937 (FLT3 wild-type), 0.1 to 1 µM in experiment [6], 0.1 to 1 µM in the experiment on RS4; 11 (FLT3 wild type) and 0.0001 to 0.001 µM in experiment [7].
